ChEMBL document CHEMBL4622861, “Synthesis and biological evaluation of 6-nitro-1,2,4-triazoloazines containing polyphenol fragments possessing antioxidant and antiviral activity” (Bioorg Med Chem Lett, 2020)
The source made the active and inactive calls. No cut-off for these calls is given here.

Assays:
[1] = Cytotoxicity against MDCK cells; format: cell-based, Canis lupus familiaris; settings: dog
[2] = Inhibition of M2 proton channel in Influenza A virus (A/Puerto Rico/8/34(H1N1)) infected in MDCK cells assessed as inhibition of viral infection; format: cell-based, Influenza A virus (A/Puerto Rico/8/1934(H1N1))
[3] = tested on: M2 proton channel of Influenza A virus; test: Selectivity index, ratio of CC50 for MDCK cells to IC50 for M2 proton channel in Influenza A virus (A/Puerto Rico/8/34(H1N1) ) infected in MDCK cells assessed as inhibition of viral infection; format: toxicity, cell-based; settings: dog, read-out: Ratio CC50/IC50
[4] = tested on: Influenza A virus; test: Antiviral activity against Influenza A virus (A/Puerto Rico/8/34(H1N1)) infected in MDCK cells assessed as reduction in viral titer at 50 uM measured after 4 hrs post-infection; format: functional, organism-based; settings: A/Puerto Rico/8/1934(H1N1)
[5] = target: Hemagglutinin (Influenza A virus (A/Puerto Rico/8/1934(H1N1))) (UniProt P03452); test: Inhibition of Hemagglutinin in Influenza A virus (A/Puerto Rico/8/34(H1N1)) assessed as reduction in virus-induced agglutination of chicken erythrocytes at 100 uM
Hemagglutinin (Influenza A virus (A/Puerto Rico/8/1934(H1N1))), sequence (P03452 whole entry): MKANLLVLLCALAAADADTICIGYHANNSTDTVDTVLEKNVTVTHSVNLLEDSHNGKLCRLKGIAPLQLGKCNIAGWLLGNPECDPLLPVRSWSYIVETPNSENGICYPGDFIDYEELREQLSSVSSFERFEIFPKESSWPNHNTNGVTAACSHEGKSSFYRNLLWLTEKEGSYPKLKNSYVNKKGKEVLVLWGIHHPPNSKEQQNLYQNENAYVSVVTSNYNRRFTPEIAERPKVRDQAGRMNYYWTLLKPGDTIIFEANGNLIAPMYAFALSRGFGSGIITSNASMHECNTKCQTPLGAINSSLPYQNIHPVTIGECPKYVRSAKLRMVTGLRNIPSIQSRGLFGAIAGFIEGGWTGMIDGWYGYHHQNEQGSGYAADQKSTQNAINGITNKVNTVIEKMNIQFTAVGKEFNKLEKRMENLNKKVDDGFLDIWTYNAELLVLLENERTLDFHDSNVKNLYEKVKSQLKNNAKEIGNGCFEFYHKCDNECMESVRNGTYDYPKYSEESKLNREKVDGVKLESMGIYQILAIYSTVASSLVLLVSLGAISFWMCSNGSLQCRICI

[6] = tested on: Influenza A virus; test: Antiviral activity against Influenza A virus (A/Puerto Rico/8/34(H1N1)) infected in MDCK cells assessed as reduction in viral titer at 100 uM measured at 0 to 8 hrs post-infection; format: functional, organism-based; settings: A/Puerto Rico/8/1934(H1N1)
[7] = tested on: Influenza A virus; test: Antiviral activity against Influenza A virus (A/Puerto Rico/8/34(H1N1)) infected in MDCK cells assessed as reduction in viral titer at 100 uM measured at 0 to 2 hrs post-infection; format: functional, organism-based; settings: A/Puerto Rico/8/1934(H1N1)
[8] = Antioxidant activity in K3[Fe(CN)6]/K4[Fe(CN)6] system by potentiometric method; format: functional
[9] = tested on: Influenza A virus; test: Antiviral activity against Influenza A virus (A/Puerto Rico/8/34(H1N1)) infected in MDCK cells assessed as reduction in viral titer at 50 uM measured at 0 to 8 hrs post-infection; format: functional, organism-based; settings: A/Puerto Rico/8/1934(H1N1)
[10] = tested on: Influenza A virus; test: Antiviral activity against Influenza A virus (A/Puerto Rico/8/34(H1N1)) infected in MDCK cells assessed as reduction in viral titer at 100 uM measured after 4 hrs post-infection; format: functional, organism-based; settings: A/Puerto Rico/8/1934(H1N1)
[11] = tested on: Influenza A virus; test: Antiviral activity against Influenza A virus (A/Puerto Rico/8/34(H1N1)) infected in MDCK cells assessed as reduction in viral titer at 50 uM measured at 0 to 2 hrs post-infection; format: functional, organism-based; settings: A/Puerto Rico/8/1934(H1N1)
[12] = target: Hemagglutinin (Influenza A virus (A/Puerto Rico/8/1934(H1N1))) (UniProt P03452); test: Inhibition of Hemagglutinin in Influenza A virus (A/Puerto Rico/8/34(H1N1)) assessed as reduction in virus-induced agglutination of chicken erythrocytes at 50 uM

Row | Structure (SMILES) | CC50 [1] | IC50 [2] | selectivity ratio [3] | also measured
1 | O=[N+]([O-])C1=CNc2ncnn2C1O (configuration not stated) | 123 µM | 28 µM | 4 | 
2 | O=[N+]([O-])C1=CNc2nc(C(F)(F)F)nn2C1c1ccc(O)c(O)c1O (configuration not stated) | 373 µM | 47 µM | 8 | 
3 | O=[N+]([O-])C1=NNc2ncnn2C1c1c(O)cc(O)cc1O (configuration not stated) | 119 µM | 26 µM | 5 | 
4 | CCC(CC)O[C@@H]1C=C(C(=O)O)C[C@H](N)[C@H]1NC(C)=O [OSELTAMIVIR CARBOXYLATE] | 66 µM | 13 µM | 5 | 
5 | O=[N+]([O-])C1=CNc2ncnn2C1c1c(O)cc(O)cc1O (configuration not stated) | > 1030 µM | 20 µM | > 51 | Activity [4]: Active; inhibition [5]: Active; Activity [6]: Active; Activity [7]: Active
6 | CSc1nc2n(n1)C(c1c(O)cc(O)cc1O)C([N+](=O)[O-])=NN2 (configuration not stated) | 877 µM | 23 µM | 39 | 
7 | O=[N+]([O-])C1=NNc2ncnn2C1c1ccc(O)cc1O (configuration not stated) | 90 µM | 34 µM | 3 | Activity [8]: inactive
8 | O=[N+]([O-])C1=NNc2ncnn2C1c1ccc(O)c(O)c1O (configuration not stated) | 228 µM | 86 µM | 3 | 
9 | O=[N+]([O-])C1=NNc2nc(C(F)(F)F)nn2C1O (configuration not stated) | 40 µM | 11 µM | 4 | 
10 | O=[N+]([O-])C1=CNc2nc(C(F)(F)F)nn2C1c1ccc(O)c(O)c1 (configuration not stated) | 1200 µM | 21 µM | 57 | 
11 | O=[N+]([O-])C1=NNc2nc(C(F)(F)F)nn2C1c1ccc(O)c(O)c1 (configuration not stated) | 183 µM | > 120 µM | 2 | 
12 | O=[N+]([O-])C1=CNc2ncnn2C1c1ccc(O)c(O)c1 (configuration not stated) | 368 µM | 42 µM | 9 | 
13 | O=[N+]([O-])C1=CNc2nc(C(F)(F)F)nn2C1c1ccc(O)cc1O (configuration not stated) | 258 µM | 6 µM | 43 | 
14 | CSc1nc2n(n1)C(c1ccc(O)cc1O)C([N+](=O)[O-])=NN2 (configuration not stated) | 201 µM | 18 µM | 11 | Activity [8]: inactive
15 | CSc1nc2n(n1)C(c1ccc(O)c(O)c1)C([N+](=O)[O-])=NN2 (configuration not stated) | 362 µM | 44 µM | 8 | Activity [9]: Active; Activity [10]: Active; Activity [11]: Active; inhibition [12]: Active
16 | CSc1nc2n(n1)C(c1ccc(O)c(O)c1O)C([N+](=O)[O-])=NN2 (configuration not stated) | 196 µM | 26 µM | 8 | Activity [8]: inactive

Row | Structure (SMILES) | CC50 [1] | IC50 [2] | selectivity ratio [3] | also measured
17 | CC(N)C12CC3CC(CC(C3)C1)C2 (configuration not stated) [RIMANTADINE] | > 200 µM | 0.3 µM | > 667 | 
18 | O=[N+]([O-])C1=CNc2nc(-c3ccco3)nn2C1c1ccc(O)c(O)c1O (configuration not stated) | 317 µM | 97 µM | 3 | 
19 | O=[N+]([O-])C1=NNc2ncnn2C1c1ccc(O)c(O)c1 (configuration not stated) | > 1640 µM | 1090 µM | 2 | 
20 | O=[N+]([O-])C1=CNc2nc(-c3ccco3)nn2C1c1c(O)cc(O)cc1O (configuration not stated) | 280 µM | 70 µM | 4 | 
21 | O=[N+]([O-])C1=CNc2ncnn2C1c1ccc(O)c(O)c1O (configuration not stated) | 405 µM | 595 µM | 1 | 
22 | O=[N+]([O-])C1=CNc2ncnn2C1c1ccc(O)cc1O (configuration not stated) | > 1090 µM | 167 µM | > 7 | 
23 | O=[N+]([O-])C1=NNc2nc(C(F)(F)F)nn2C1c1c(O)cc(O)cc1O (configuration not stated) | 252 µM | 27 µM | 9 | 
24 | O=[N+]([O-])C1=CNc2nc(C(F)(F)F)nn2C1c1c(O)cc(O)cc1O (configuration not stated) | 838 µM | 27 µM | 32 | 
25 | O=[N+]([O-])C1=NNc2nc(C(F)(F)F)nn2C1c1ccc(O)cc1O (configuration not stated) | 108 µM | 33 µM | 3 | 
26 | O=[N+]([O-])C1=CNc2nc(-c3ccco3)nn2C1 | 108 µM | 9 µM | 13 | 
27 | O=[N+]([O-])C1=CNc2nc(-c3ccco3)nn2C1c1ccc(O)c(O)c1 (configuration not stated) | > 1200 µM | 101 µM | > 12 | 
28 | O=[N+]([O-])C1=NNc2nc(C(F)(F)F)nn2C1c1ccc(O)c(O)c1O (configuration not stated) | 67 µM | 10 µM | 7 | 
29 | O=[N+]([O-])C1=NNc2ncnn2C1O (configuration not stated) | 87 µM | > 36 µM | 2 | 
30 | O=[N+]([O-])C1=CNc2nc(-c3ccco3)nn2C1c1ccc(O)cc1O (configuration not stated) | 119 µM | 9 µM | 14 | 
31 | CSc1nc2n(n1)C(O)C([N+](=O)[O-])=NN2 (configuration not stated) | 99 µM | 15 µM | 7 | 
32 | O=[N+]([O-])C1=CNc2nc(C(F)(F)F)nn2C1O (configuration not stated) | 33 µM | 11 µM | 3 | 
